Data published in PMC10739250 (ACS Bio & Med Chem Au, 2023).
Values after ≈ are worked out from the molar mass of the structure shown.

How the values were obtained:
[1] = test system: SARS-CoV-2/Canada/VIDO 01/2020; type: cell-based; conditions: read-out: EC50 in the presence of the efflux inhibitor CP-100356
[2] = human, pH 7.4
[3] = rat hepatocytes, 0.5 ×10^6 cells/mL
physchem [4] = assay: physchem
physchem [5] = conditions: thermodynamic from solid
in vitro [6] = conditions: human, microsomes
in vitro [7] = conditions: hamster, hepatocytes
in vitro [8] = conditions: human, hepatocytes

With `CC(C)(C)[C@H](NC(=O)C(F)(F)F)C(=O)N1C[C@H]2[C@@H]([C@H]1C(=O)N[C@H](C#N)C[C@@H]1CCNC1=O)C2(C)C` [Compound 1, nirmatrelvir] the EC50 [1] was 200 nM, the “amount of metabolite Major” value [2] was 100 and the “amount of metabolite Minor A” value [2] was 5.1 ± 0.8. For the same molecule, the “amount of metabolite Minor B” value [2] was 2.3 ± 0.4, the “increase of minor metabolites A and B on deuteration” value [2] was 210% and the “minor sites (Minor A and Minor B), share of total metabolites” value [2] was “less than 10%”. For the same molecule, the “hepatocyte stability, t1/2, rat” value [3] was 244.7 min, the logD (physchem [4]) was 1.86 and the solubility thermodynamic (physchem [5]) was 4.79 mM (≈ 2390 µg/mL). It also gave a half-life (in vitro [6]) of 40.2 min, a half-life (in vitro [7]) of 57.4 min and a half-life (in vitro [8]) of over 434 min.
